Source: US8685974B2 (Bayer CropScience AG, priority 2009, dated 2014)
Several values for one entry are separate records, joined by “and”; a condition that tells them apart may be missing. Equal values may be shown once. Read-outs that look alike come from different tables or passages of the source. Marks after values point to notes of the source that are not given here.

Key:
Leptosphaeria nodorum = Leptosphaeria nodorum test (wheat) / protective; type: in vivo; conditions: 500 ppm active compound, protective spray, evaluated 7-9 days after inoculation
Protocol: Leptosphaeria nodorum Test (Wheat)/Protective
Solvent: 49 parts by weight of N,N-dimethylformamide
Emulsifier: 1 part by weight of alkylaryl polyglycol ether
To produce a suitable preparation of active compound, 1 part by weight of active compound is mixed with the stated amounts of solvent and emulsifier, and the concentrate is diluted with water to the desired concentration.
To test for protective activity, young wheat plants are sprayed with the preparation of active compound at the stated application rate. […] The plants are then placed in a greenhouse at 90% rel. atmospheric humidity and a temperature of 22° C.
Evaluation is carried out 7-9 days after the inoculation. 0% means an efficacy which corresponds to that of the control, whereas an efficacy of 100% means that no infection is observed.

Pyrenophora teres = test: In vivo test on Pyrenophora teres (barley net blotch); conditions: dose of 500 ppm; barley plants; grading 12 days after contamination
In short: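 Barley plants (Plaisant) grown at 12° C. sprayed at 1-leaf stage with compound in acetone/Tween/DMSO diluted in water; 24 h later inoculated with P. teres spores (12,000 spores/ml). Incubated 24 h at ~20° C., 100% RH, then 12 days at 80% RH; graded 12 days post-inoculation against untreated controls.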

Fusarium graminearum = type: cell-based
Alternaria solani = test: Alternaria test (tomato) / protective; type: in vivo; conditions: 500 ppm active compound, protective spray, evaluated 7 days after inoculation
In short: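 Young tomato plants sprayed protectively with compound formulated in DMF with alkylaryl polyglycol ether emulsifier and diluted in water to the application rate. After inoculation, plants held at 96% rel. humidity and 20° C. Efficacy scored 7 days post-inoculation: 0% equals untreated control, 100% no infection.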

| Compound | efficacy (Leptosphaeria nodorum) | log p (pH 2.7) | protection (Pyrenophora teres) | % Inhibition of fungal growth at 50 μM (Fusarium graminearum; 50 μM) | % Inhibition of DON/AcDON at 50 μM (Fusarium graminearum; 50 μM, 7 days at 28° C.) | efficacy (Alternaria solani) | log p (pH 7.8) | % Inhibition of DON/AcDON at 50 μM (Fusarium graminearum) | log p (pH 2.3) |
| --- | --- | --- | --- | --- | --- | --- | --- | --- | --- |
| CCn1cc(-c2ccnc(NC(=O)C3CCC3)c2)c(-c2ccc(Cl)s2)n1 [Example 269] | 70% | 2.92^[b] | 80% | 58% | 87% |  |  |  |  |
| CC(C)n1cc(-c2ccnc(NC(=O)C3CCC3)c2)c(-c2ccc(Cl)s2)n1 [Example 243] | 90% | 3.37^[b] | 95% | 31% | 99% | 90% |  |  |  |
| CCC(=O)Nc1cc(-c2c(-c3ccc(Cl)s3)nn(C)c2C)ccn1 [Example 170] | 90% | 2.32^[b] | 80% |  |  | 90% | 2.68^[c]; |  |  |
| CC(C)Cn1cc(-c2ccncc2)c(-c2cccs2)n1 [Example 407] | 94% | 1.5^[b] | 90% | 99% | 100% | 90% |  |  |  |
| CCC(=O)Nc1cc(-c2cn(C(C)CC)nc2-c2ccc(Cl)s2)ccn1 (stereo not shown) [Example 225] | 70% | 3.19^[b] | 95% | 87% | 99% | 95% |  |  |  |
| CCC(C)C(=O)Nc1cc(-c2cn(C(C)C)nc2-c2ccc(Cl)s2)ccn1 (stereo not shown) [Example 249] | 80% | 3.61^[b] | 95% | 11% | 99% | 95% |  |  |  |
| CC(=O)Nc1cc(-c2cn(C(C)C)nc2-c2ccc(Cl)s2)ccn1 [Example 256] | 80% | 2.45^[b] | 100% | 100% | 99% | 100% |  |  |  |
| Cn1cc(-c2ccnc(NC(=O)Cc3ccccc3)c2)c(-c2ccc(Cl)s2)n1 [Example 277] | 70% | 3.06^[b] | 90% |  |  | 90% |  |  |  |
| Cn1cc(-c2ccnc(NC(=O)CC3CC3)c2)c(-c2ccc(Cl)s2)n1 [Example 281] | 80% | 2.54^[b] | 90% | 100% | 99% | 90% |  |  |  |
| CCn1cc(-c2ccnc(NC(=O)C3CC3)c2)c(-c2ccc(Cl)s2)n1 [Example 264] | 80% | 2.52^[b] | 90% | 100% | 99% | 90% |  |  |  |
| CC(=O)N(C(C)=O)c1cc(-c2cn(C(C)C)nc2-c2ccc(Cl)s2)ccn1 [Example 304] | 80% | 3.33^[b] | 95% | 87% and 90% |  | 95% |  | 100% |  |
| CCn1cc(-c2ccnc(NC(=O)C(C)C)c2)c(-c2ccc(Cl)s2)n1 [Example 285] | 80% | 2.77^[b] | 95% | 90% | 99% | 95% |  |  |  |
| CCC(C)n1cc(-c2ccnc(NC(=O)C3CC3)c2)c(-c2ccc(Cl)s2)n1 (stereo not shown) [Example 226] | 80% | 3.35^[b] | 100% | 93% | 99% | 90% |  |  |  |
| CCC(=O)Nc1cc(-c2cn(C)nc2-c2ccc(Cl)s2)ccn1 [Example 278] | 80% | 2.05^[b] | 90% | 100% | 98% | 90% |  |  |  |
| CC(=O)Nc1cc(-c2cnn(/C=C/F)c2-c2ccc(Cl)s2)ccn1 [Example 292] | 70% | 2.84^[b] | 95% | 45% | 100% | 90% |  |  |  |
| CCC(=O)Nc1nccc(-c2cn(C(C)CC)nc2-c2ccc(Cl)s2)n1 (stereo not shown) [Example 190] | 70% |  | 95% |  |  | 80% |  |  | 3.37^[a] |
| CC(C)C(=O)Nc1cc(-c2cn(C)nc2-c2ccc(Cl)s2)ccn1 [Example 288] | 70% | 2.39^[b] | 95% | 92% | 99% | 90% |  |  |  |
| C#CCNc1nccc(-c2cn(C(C)C)nc2-c2ccc(Cl)s2)n1 [Example 180] | 70% |  | 80% |  |  |  |  |  | 3.25^[a] |
| CCn1nc(-c2ccc(Cl)s2)c(-c2ccncc2)c1C [Example 146] | 95% | 1.61^[b] | 100% |  |  | 95% | 3.08^[c]; |  |  |
| CC(C)n1cc(-c2ccnc(NC(=O)N(C)C)c2)c(-c2ccc(Cl)s2)n1 [Example 248] | 90% | 1.97^[b] | 100% |  |  | 90% |  |  |  |
| CCC(=O)Nc1cc(-c2c(-c3ccc(Cl)s3)nn(C(C)C)c2C)ccn1 [Example 168] | 90% | 3.34^[b] | 90% |  |  | 90% | 3.76^[c]; |  |  |
| CCC(C)C(=O)Nc1cc(-c2cn(C)nc2-c2ccc(Cl)s2)ccn1 (stereo not shown) [Example 280] | 80% | 2.71^[b] | 90% |  |  | 90% |  |  |  |
| CC(C)Nc1nccc(-c2cn(C(C)C)nc2-c2ccc(Cl)s2)n1 [Example 181] | 70% |  | 80% |  |  |  |  |  | 2.82^[a] |
| CCC(=O)Nc1nccc(-c2cn(C(C)C)nc2-c2ccc(Cl)s2)n1 [Example 172] | 89% |  | 100% |  |  |  |  |  | 3.04^[a] |
| Cc1c(-c2ccncc2)c(-c2ccc(Cl)s2)nn1C(C)C [Example 145] | 95% | 2.07^[b] | 100% |  |  | 100% | 3.8^[c]; |  |  |
| CCC(=O)Nc1cc(-c2c(-c3ccc(Cl)s3)nn(CC)c2C)ccn1 [Example 169] | 80% | 2.71^[b] | 95% |  |  | 95% | 3.1^[c]; |  |  |
| CC(C)n1cc(-c2ccnc(NC3COC3)n2)c(-c2ccc(Cl)s2)n1 [Example 179] | 80% |  | 90% |  |  | 80% |  |  | 2.7^[a] |
| CC(=O)N(C(C)=O)c1nccc(-c2cn(C(C)C)nc2-c2ccc(Cl)s2)n1 [Example 171] | 89% |  | 95% |  |  |  |  |  | 3.33^[a] |
| CCC(=O)Nc1cc(-c2cn(C(C)C)nc2-c2cccs2)ccn1 [Example 175] | 70% | 2.01^[b] | 90% |  |  | 80% | 2.61^[c]; |  |  |
